Data taken from ChEMBL document CHEMBL4414672, “Synthesis of certain benzothieno[3,2-d]pyrimidine derivatives as a selective SIRT2 inhibitors” (Eur J Med Chem, 2020).

How the values were obtained:
Assay type in all cases: functional
CCRF-CEM = assay: Growth inhibition of human CCRF-CEM cells at 10^-5 M incubated for 48 hrs by sulforhodamine B assay; conditions: read-out: GI
HL-60(TB) = assay: Growth inhibition of human HL-60(TB) cells at 10^-5 M incubated for 48 hrs by sulforhodamine B assay; conditions: HL-60, 48 h, read-out: GI
K562 = assay: Growth inhibition of human K562 cells at 10^-5 M incubated for 48 hrs by sulforhodamine B assay; conditions: K562, 48 h, read-out: GI
MOLT-4 = assay: Growth inhibition of human MOLT4 cells at 10^-5 M incubated for 48 hrs by sulforhodamine B assay; conditions: MOLT-4, 48 h, read-out: GI
SR = assay: Growth inhibition of human SR cells at 10^-5 M incubated for 48 hrs by sulforhodamine B assay; conditions: read-out: GI
A549 = assay: Growth inhibition of human A549/ATCC cells at 10^-5 M incubated for 48 hrs by sulforhodamine B assay; conditions: A549, 48 h, read-out: GI
EKVX = assay: Growth inhibition of human EKVX cells at 10^-5 M incubated for 48 hrs by sulforhodamine B assay; conditions: read-out: GI
HOP-62 = assay: Growth inhibition of human HOP62 cells at 10^-5 M incubated for 48 hrs by sulforhodamine B assay; conditions: HOP-62, 48 h, read-out: GI
HOP-92 = assay: Growth inhibition of human HOP92 cells at 10^-5 M incubated for 48 hrs by sulforhodamine B assay; conditions: HOP-92, 48 h, read-out: GI
NCI-H226 = assay: Growth inhibition of human NCI-H226 cells at 10^-5 M incubated for 48 hrs by sulforhodamine B assay; conditions: NCI-H226, 48 h, read-out: GI
NCI-H23 = assay: Growth inhibition of human NCI-H23 cells at 10^-5 M incubated for 48 hrs by sulforhodamine B assay; conditions: NCI-H23, 48 h, read-out: GI
NCI-H322M = assay: Growth inhibition of human NCI-H322M cells at 10^-5 M incubated for 48 hrs by sulforhodamine B assay; conditions: read-out: GI
NCI-H522 = assay: Growth inhibition of human NCI-H522 cells at 10^-5 M incubated for 48 hrs by sulforhodamine B assay; conditions: NCI-H522, 48 h, read-out: GI
HCT-116 = assay: Growth inhibition of human HCT116 cells at 10^-5 M incubated for 48 hrs by sulforhodamine B assay; conditions: HCT-116, 48 h, read-out: GI
HT-29 = assay: Growth inhibition of human HT-29 cells at 10^-5 M incubated for 48 hrs by sulforhodamine B assay; conditions: HT-29, 48 h, read-out: GI
KM12 = assay: Growth inhibition of human KM12 cells at 10^-5 M incubated for 48 hrs by sulforhodamine B assay; conditions: KM12, 48 h, read-out: GI
SW-620 = assay: Growth inhibition of human SW620 cells at 10^-5 M incubated for 48 hrs by sulforhodamine B assay; conditions: SW-620, 48 h, read-out: GI
SF-268 = assay: Growth inhibition of human SF268 cells at 10^-5 M incubated for 48 hrs by sulforhodamine B assay; conditions: SF-268, 48 h, read-out: GI
SF-295 = assay: Growth inhibition of human SF295 cells at 10^-5 M incubated for 48 hrs by sulforhodamine B assay; conditions: SF-295, 48 h, read-out: GI
Malme-3M = assay: Growth inhibition of human MALME-3M cells at 10^-5 M incubated for 48 hrs by sulforhodamine B assay; conditions: read-out: GI
M14 = assay: Growth inhibition of human M14 cells at 10^-5 M incubated for 48 hrs by sulforhodamine B assay; conditions: M14, 48 h, read-out: GI
MDA-MB-435 = assay: Growth inhibition of human MDA-MB-435 cells at 10^-5 M incubated for 48 hrs by sulforhodamine B assay; conditions: MDA-MB-435, 48 h, read-out: GI
SK-MEL-28 = assay: Growth inhibition of human SK-MEL-28 cells at 10^-5 M incubated for 48 hrs by sulforhodamine B assay; conditions: SK-MEL-28, 48 h, read-out: GI
IGROV-1 = assay: Growth inhibition of human IGROV1 cells at 10^-5 M incubated for 48 hrs by sulforhodamine B assay; conditions: IGROV-1, 48 h, read-out: GI
OVCAR-3 = assay: Growth inhibition of human OVCAR3 cells at 10^-5 M incubated for 48 hrs by sulforhodamine B assay; conditions: OVCAR-3, 48 h, read-out: GI
OVCAR-4 = assay: Growth inhibition of human OVCAR4 cells at 10^-5 M incubated for 48 hrs by sulforhodamine B assay; conditions: OVCAR-4, 48 h, read-out: GI
OVCAR-8 = assay: Growth inhibition of human OVCAR8 cells at 10^-5 M incubated for 48 hrs by sulforhodamine B assay; conditions: OVCAR-8, 48 h, read-out: GI
A498 = assay: Growth inhibition of human A498 cells at 10^-5 M incubated for 48 hrs by sulforhodamine B assay; conditions: A498, 48 h, read-out: GI
ACHN = assay: Growth inhibition of human ACHN cells at 10^-5 M incubated for 48 hrs by sulforhodamine B assay; conditions: read-out: GI
CAKI-1 = assay: Growth inhibition of human Caki1 cells at 10^-5 M incubated for 48 hrs by sulforhodamine B assay; conditions: CAKI-1, 48 h, read-out: GI
TK-10 = assay: Growth inhibition of human TK10 cells at 10^-5 M incubated for 48 hrs by sulforhodamine B assay; conditions: TK-10, 48 h, read-out: GI
UO-31 = assay: Growth inhibition of human UO31 cells at 10^-5 M incubated for 48 hrs by sulforhodamine B assay; conditions: UO-31, 48 h, read-out: GI
DU-145 = assay: Growth inhibition of human DU145 cells at 10^-5 M incubated for 48 hrs by sulforhodamine B assay; conditions: DU-145, 48 h, read-out: GI
MCF7 = assay: Growth inhibition of human MCF7 cells at 10^-5 M incubated for 48 hrs by sulforhodamine B assay; conditions: MCF7, 48 h, read-out: GI
MDA-MB-231 = assay: Growth inhibition of human MDA-MB-231 cells at 10^-5 M incubated for 48 hrs by sulforhodamine B assay; conditions: MDA-MB-231, 48 h, read-out: GI
Hs-578T = assay: Growth inhibition of human Hs 578T cells at 10^-5 M incubated for 48 hrs by sulforhodamine B assay; conditions: read-out: GI
BT-549 = assay: Growth inhibition of human BT549 cells at 10^-5 M incubated for 48 hrs by sulforhodamine B assay; conditions: BT-549, 48 h, read-out: GI
T47D = assay: Growth inhibition of human T47D cells at 10^-5 M incubated for 48 hrs by sulforhodamine B assay; conditions: read-out: GI
MDA-MB-468 = assay: Growth inhibition of human MDA-MB-468 cells at 10^-5 M incubated for 48 hrs by sulforhodamine B assay; conditions: MDA-MB-468, 48 h, read-out: GI

Structure (SMILES)	inhibition of growth at 10 µM (CCRF-CEM)	inhibition of growth at 10 µM (HL-60(TB))	inhibition of growth at 10 µM (K562)	inhibition of growth at 10 µM (MOLT-4)	inhibition of growth at 10 µM (SR)	inhibition of growth at 10 µM (A549)	inhibition of growth at 10 µM (EKVX)	inhibition of growth at 10 µM (HOP-62)	inhibition of growth at 10 µM (HOP-92)	inhibition of growth at 10 µM (NCI-H226)	inhibition of growth at 10 µM (NCI-H23)	inhibition of growth at 10 µM (NCI-H322M)	inhibition of growth at 10 µM (NCI-H522)	inhibition of growth at 10 µM (HCT-116)	inhibition of growth at 10 µM (HT-29)	inhibition of growth at 10 µM (KM12)	inhibition of growth at 10 µM (SW-620)	inhibition of growth at 10 µM (SF-268)	inhibition of growth at 10 µM (SF-295)	inhibition of growth at 10 µM (Malme-3M)	further results
O=C1/C(=C\c2ccccc2O)Sc2ccc(Cl)cc21	-1.92%	-1.87%	4.83%	11.4%	26.2%	-0.44%	13.3%	5.99%	3%	4.98%	11.7%	10.4%	5.61%	10%	-12.2%	-0.47%	-11.4%	5.86%	-6.81%	4.11%	inhibition of growth at 10 µM (M14): 0.22%; inhibition of growth at 10 µM (MDA-MB-435): -5.13%; inhibition of growth at 10 µM (SK-MEL-28): -14.6%; inhibition of growth at 10 µM (IGROV-1): 0.45%; inhibition of growth at 10 µM (OVCAR-3): -11.6%; inhibition of growth at 10 µM (OVCAR-4): 1.63%; inhibition of growth at 10 µM (OVCAR-8): 1.53%; inhibition of growth at 10 µM (A498): 3.49%; inhibition of growth at 10 µM (ACHN): 2.5%; inhibition of growth at 10 µM (CAKI-1): 15.9%; inhibition of growth at 10 µM (TK-10): -16%; inhibition of growth at 10 µM (UO-31): -16%; inhibition of growth at 10 µM (DU-145): -12.3%; inhibition of growth at 10 µM (MCF7): -12.3%; inhibition of growth at 10 µM (MDA-MB-231): 11%; inhibition of growth at 10 µM (Hs-578T): 3.91%; inhibition of growth at 10 µM (BT-549): -20.1%; inhibition of growth at 10 µM (T47D): 22.2%; inhibition of growth at 10 µM (MDA-MB-468): -4.1%
N=C1Nc2c(sc3ccc(Cl)cc23)C(c2ccccc2O)N1 (stereo not drawn)	-8.23%	-8.53%	-2.22%	0.44%	10.2%	-4.84%	17.6%	9.32%	21.2%	12.7%	10.5%	4.18%	7.68%	10.7%	-6.21%	-3.63%	1.38%	6.19%	-6.6%	4.61%	inhibition of growth at 10 µM (M14): 1.39%; inhibition of growth at 10 µM (MDA-MB-435): 2%; inhibition of growth at 10 µM (SK-MEL-28): -16.7%; inhibition of growth at 10 µM (IGROV-1): 17.4%; inhibition of growth at 10 µM (OVCAR-3): -1.68%; inhibition of growth at 10 µM (OVCAR-4): 12.3%; inhibition of growth at 10 µM (OVCAR-8): -6.18%; inhibition of growth at 10 µM (A498): 6.2%; inhibition of growth at 10 µM (ACHN): 18.8%; inhibition of growth at 10 µM (CAKI-1): -15.6%; inhibition of growth at 10 µM (TK-10): 38%; inhibition of growth at 10 µM (UO-31): 11.9%; inhibition of growth at 10 µM (DU-145): 23.3%; inhibition of growth at 10 µM (MCF7): 13.9%; inhibition of growth at 10 µM (MDA-MB-231): -5.69%; inhibition of growth at 10 µM (Hs-578T): -10.5%; inhibition of growth at 10 µM (BT-549): 17.5%; inhibition of growth at 10 µM (T47D): -13.9%; inhibition of growth at 10 µM (MDA-MB-468): 2.58%
